Data taken from publication PMC11003488 (Journal of Enzyme Inhibition and Medicinal Chemistry, 2023).
Where two headings read alike, the source gives them in different places.

Experiments:
SR = assay: NCI-60 SRB growth inhibition, one-dose and five-dose; type: cell-based; details: Homo sapiens
BT-549 = assay: as above; type: cell-based; details: Homo sapiens
SK-MEL-5 = assay: as above; type: cell-based; details: Homo sapiens
T-47D = assay: as above; type: cell-based; details: Homo sapiens, T47D
MDA-MB-435 = assay: as above; type: cell-based; details: Homo sapiens
SK-MEL-2 = assay: as above; type: cell-based; details: Homo sapiens, SK-MEL-2, read-out: percent growth inhibition
OVCAR-3 = assay: as above; type: cell-based; details: Homo sapiens
UACC-62 = assay: as above; type: cell-based; details: Homo sapiens
HCT-116 = assay: as above; type: cell-based; details: Homo sapiens
IGROV1 = assay: as above; type: cell-based; details: Homo sapiens
COLO 205 = assay: as above; type: cell-based; details: Homo sapiens
HOP-62 = assay: as above; type: cell-based; details: Homo sapiens
OVCAR-5 = assay: as above; type: cell-based; details: Homo sapiens
786-0 = assay: as above; type: cell-based; details: Homo sapiens
MCF7 = assay: as above; type: cell-based; details: Homo sapiens
DU-145 = assay: as above; type: cell-based; details: Homo sapiens
[1] = test system: NCI 60-cell line panel (full panel); assay: NCI-60 SRB growth inhibition, full panel mean / MG-MID; type: cell-based, human; details: for GI50: Homo sapiens, 60 cell
OVCAR-4 = assay: NCI-60 SRB growth inhibition, one-dose and five-dose; type: cell-based; details: Homo sapiens
SF-268 = assay: as above; type: cell-based; details: Homo sapiens
HS 578 T = assay: as above; type: cell-based; details: Homo sapiens
MALME-3M = assay: as above; type: cell-based; details: Homo sapiens
RXF 393 = assay: as above; type: cell-based; details: Homo sapiens
K-562 = assay: as above; type: cell-based; details: Homo sapiens
NCI-H522 = assay: as above; type: cell-based; details: Homo sapiens
SF-539 = assay: as above; type: cell-based; details: Homo sapiens
HT29 = assay: as above; type: cell-based; details: Homo sapiens
NCI-H460 = assay: as above; type: cell-based; details: Homo sapiens
ACHN = assay: as above; type: cell-based; details: Homo sapiens
SNB-19 = assay: as above; type: cell-based; details: Homo sapiens
LOX IMVI = assay: as above; type: cell-based; details: Homo sapiens
SNB-75 = assay: as above; type: cell-based; details: Homo sapiens
NCI-H226 = assay: as above; type: cell-based; details: Homo sapiens
HCC-2998 = assay: as above; type: cell-based; details: Homo sapiens
SF-295 = assay: as above; type: cell-based; details: Homo sapiens
NCI/ADR-RES = assay: as above; type: cell-based; details: Homo sapiens
HCT-15 = assay: as above; type: cell-based; details: Homo sapiens
CAKI-1 = assay: as above; type: cell-based; details: Homo sapiens
CCRF-CEM = assay: as above; type: cell-based; details: Homo sapiens
NCI-H322M = assay: as above; type: cell-based; details: Homo sapiens
A498 = assay: as above; type: cell-based; details: Homo sapiens
A549/ATCC = assay: as above; type: cell-based; details: Homo sapiens
HOP-92 = assay: as above; type: cell-based; details: Homo sapiens
[2] = read-out: percent growth inhibition

O=C(/C=C/c1cccnc1)c1cccc(NCc2csc3ccccc23)c1 [Compound 5d, (E)-1–(3-((benzo[b]thiophen-3-ylmethyl)amino)phenyl)-3-(pyridin-3-yl)prop-2-en-1-one]
GI50 (SR): 2.51 µM
GI50 (BT-549; BT-549): 2.75 µM
inhibition at 10 µM (BT-549; BT-549, read-out: percent growth inhibition): 174%
GI50 (SK-MEL-5; SK-MEL-5): 2.89 µM
inhibition at 10 µM (SK-MEL-5; SK-MEL-5, read-out: percent growth inhibition): 163%
GI50 (T-47D): 2.83 µM
inhibition at 10 µM (T-47D; [2]): 91.2%
GI50 (MDA-MB-435; MDA-MB-435): 2.55 µM
inhibition at 10 µM (MDA-MB-435; MDA-MB-435, read-out: percent growth inhibition): 121%
inhibition at 10 µM (SK-MEL-2): 74%
GI50 (OVCAR-3; OVCAR-3): 3.19 µM
inhibition at 10 µM (OVCAR-3; OVCAR-3, read-out: percent growth inhibition): 157%
GI50 (UACC-62; UACC-62): 3.75 µM
inhibition at 10 µM (UACC-62; UACC-62, read-out: percent growth inhibition): 151%
GI50 (HCT-116; HCT-116, HCT-116, five-dose screening): 1.82 µM
inhibition at 10 µM (HCT-116; HCT-116, read-out: percent growth inhibition): 195%
GI50 (IGROV1; IGROV-1): 3.32 µM
inhibition at 10 µM (IGROV1; IGROV-1, read-out: percent growth inhibition): 108%
GI50 (COLO 205; COLO 205): 11.6 µM
inhibition at 10 µM (COLO 205; COLO 205, read-out: percent growth inhibition): 86.5%
GI50 (HOP-62; HOP-62): 10.2 µM
inhibition at 10 µM (HOP-62; HOP-62, read-out: percent growth inhibition): 65.2%
GI50 (OVCAR-5; OVCAR-5): 7.07 µM
inhibition at 10 µM (OVCAR-5; OVCAR-5, read-out: percent growth inhibition): 91.5%
GI50 (786-0; 786-0): 8.65 µM
inhibition at 10 µM (786-0; 786-0, read-out: percent growth inhibition): 182%
GI50 (MCF7; MCF7): 1.58 µM
inhibition at 10 µM (MCF7; MCF7, read-out: percent growth inhibition): 176%
GI50 (DU-145; DU-145): 7.35 µM
inhibition at 10 µM (DU-145; DU-145, read-out: percent growth inhibition): 71.9%
GI50 ([1]; read-out: Full panel GI50 mean): 4.74 µM
GI50 ([1]; read-out: Full panel MG-MID GI50): 4.74 µM
Full panel Mean GI % ([1]; mean over NCI-60 panel, single dose 10 µM): 120.02%
GI50 (OVCAR-4; OVCAR-4): 4.27 µM
inhibition at 10 µM (OVCAR-4; OVCAR-4, read-out: percent growth inhibition): 82.5%
GI50 (SF-268; SF-268): 12 µM
inhibition at 10 µM (SF-268; SF-268, read-out: percent growth inhibition): 69.7%
GI50 (HS 578 T): 4.49 µM
inhibition at 10 µM (HS 578 T; [2]): 76.9%
GI50 (MALME-3M): 5.92 µM
inhibition at 10 µM (MALME-3M; [2]): 104%
GI50 (RXF 393; RXF 393): 4.67 µM
inhibition at 10 µM (RXF 393; RXF 393, read-out: percent growth inhibition): 177%
GI50 (K-562; K562): 3.14 µM
inhibition at 10 µM (K-562; K562, read-out: percent growth inhibition): 111%
GI50 (NCI-H522; NCI-H522): 1.78 µM
inhibition at 10 µM (NCI-H522; NCI-H522, read-out: percent growth inhibition): 170%
GI50 (SF-539; SF-539): 6.15 µM
inhibition at 10 µM (SF-539; SF-539, read-out: percent growth inhibition): 171%
GI50 (HT29; HT-29): 3.12 µM
inhibition at 10 µM (HT29; HT-29, read-out: percent growth inhibition): 165%
GI50 (NCI-H460; NCI-H460): 4.98 µM
inhibition at 10 µM (NCI-H460; NCI-H460, read-out: percent growth inhibition): 91.3%
GI50 (ACHN): 2.82 µM
inhibition at 10 µM (ACHN; [2]): 155%
GI50 (SNB-19; SNB-19): 3.86 µM
inhibition at 10 µM (SNB-19; SNB-19, read-out: percent growth inhibition): 134%
GI50 (LOX IMVI): 1.69 µM
inhibition at 10 µM (LOX IMVI; [2]): 198%
GI50 (SNB-75; SNB-75): 3.34 µM
inhibition at 10 µM (SNB-75; SNB-75, read-out: percent growth inhibition): 69.9%
GI50 (NCI-H226; NCI-H226): 3.43 µM
inhibition at 10 µM (NCI-H226; NCI-H226, read-out: percent growth inhibition): 111%
GI50 (HCC-2998; HCC 2998): 3.66 µM
inhibition at 10 µM (HCC-2998; HCC 2998, read-out: percent growth inhibition): 188%
GI50 (SF-295; SF-295): 5.12 µM
inhibition at 10 µM (SF-295; SF-295, read-out: percent growth inhibition): 92.9%
GI50 (NCI/ADR-RES): 2.15 µM
inhibition at 10 µM (NCI/ADR-RES; [2]): 101%
GI50 (HCT-15; HCT-15): 1.92 µM
inhibition at 10 µM (HCT-15; HCT-15, read-out: percent growth inhibition): 141%
GI50 (CAKI-1; CAKI-1): 9.3 µM
inhibition at 10 µM (CAKI-1; CAKI-1, read-out: percent growth inhibition): 98.3%
GI50 (CCRF-CEM): 3.01 µM
inhibition at 10 µM (CCRF-CEM; [2]): 134%
GI50 (NCI-H322M): 11.5 µM
inhibition at 10 µM (NCI-H322M; [2]): 42.6%
GI50 (A498; A498): 12.1 µM
inhibition at 10 µM (A498; A498, read-out: percent growth inhibition): 36.5%
GI50 (A549/ATCC; A549): 11.5 µM
inhibition at 10 µM (A549/ATCC; A549, read-out: percent growth inhibition): 53.1%
GI50 (HOP-92; HOP-92): 10.2 µM
inhibition at 10 µM (HOP-92; HOP-92, read-out: percent growth inhibition): 39.4%
